{
  "source": "patent US11661398B2",
  "about": "“Cellular transport system for transferring a sulfonic acid construct carrying a cargo into the cytoplasm of a cell” (Scientist of Fortune, S.A., priority 2017, dated 2023)",
  "key": {"TK090": {"tested_on": "TK090", "assay": "Complementation of NAD+ auxotrophic strain", "format": "cell-based, E. coli", "settings": "for concentration needed to support growth as NAD+ source: TK090[pSsuABC, pPnGGT*]; for growth with compound as sole source of NAD+: spent MS minimal medium, 25 μM N-picolyl-sulfobutyramide, different plasmid combinations", "experimental": "FIG. 27. Utilization of NAD^+ precursors. NAD^+ auxotrophic strain TK090 [pSsuABC; pPnGGT*] was grown in MS minimal medium containing 0.5% glucose, 1 mM MgSO4, 0.4 mM leucine, 0.5 mM IPTG, 100 ng ml^−1 aTc and varying concentrations of either 3-picolylamine (a) or nicotinic acid (b). […] Dots represent the average of three independent measurements with standard deviations shown as error bars.\nSelection experiments with NAD^+ auxotrophic strains are prone to contamination with unwanted NAD^+ sources and therefore demand special preparation of the precultures and medium. For the precultures, all tested strains were incubated overnight in MS minimal medium supplemented with 0.5% glucose, 1 mM MgSO4, 0.4 mM L-leucine and 5 μM nicotinic acid. To guarantee complete consumption of nicotinic acid, precultures were then diluted 100-fold in MS minimal medium supplemented only with 0.5% glucose, 1 mM MgSO4 and 0.4 mM L-leucine, but no additional NAD^+ source. Following an overnight incubation period, NAD^+-deprived cells were washed twice in the same medium and used for growth assays.\nTo prepare the medium for final growth assays, MS minimal medium was supplemented with 0.5% glucose, 1 mM MgSO4, 0.4 mM L-leucine and 25 μM N-picolyl-sulfobutyramide (see below for description of synthesis). To remove all NAD^+ contaminants, the medium was inoculated overnight with strain TK090, which can utilize free NAD^+ precursors, but cannot take up or hydrolyze N-picolyl-sulfobutyramide due to the absence of SsuABC and PnGGT*. After an overnight incubation period, cells were separated from the medium by centrifugation and the supernatant was filtered using a Minisart 0.22 μm High Flow Syringe Filter (Sartorius, Goettingen, Germany). The filtered supernatant was then supplemented with the respective antibiotics and inducers and used for growth assays."}, "TK082": {"tested_on": "TK082", "assay": "In vivo hydrolysis of sulfobutanoyl-p-nitroanilide and sulfobutanoyl-AMC", "format": "cell-based, E. coli", "experimental": "Strain TK082 was transformed with plasmids as indicated in the text and grown at 37° C. in MS minimal medium supplemented with 0.5% glucose, 1 mM MgSO4 and 0.4 mM L-leucine to an OD600 of 0.5. At that stage, the synthesis of PnGGT* and/or SsuABC was induced for 2 hours by adding 0.5 mM IPTG and 100 ng mL^−1 aTc. Following this synthesis period, cells were washed in the same medium to remove proteins that had been released into the medium by cell lysis. After an additional centrifugation step, cells were resuspended in MS minimal medium supplemented with 0.5% glucose, 1 mM MgSO4, 0.4 mM L-leucine, 0.5 mM IPTG, 100 ng mL^−1 aTc and 0.5 mM sulfobutanoyl-p-nitroanilide or sulfobutanoyl-AMC (see below for description of synthesis) and incubated in a Tecan Infinite 200 Pro plate reader at 37° C. To monitor cell density and the release of 4-nitroaniline, absorbance was constantly measured at 600 nm and 410 nm. The release of AMC was monitored by measuring the fluorescence at λex=350 nm and λem=450 nm. To determine the influence of competition for the sulfonate transporter SsuABC, different concentrations of pentanesulfonate (Sigma Aldrich) were added to the medium."}, "BW25113 ΔleuB (TK080)": {"tested_on": "BW25113 ΔleuB (TK080)", "assay": "Growth on different sulfur sources", "format": "cell-based, E. coli", "settings": "1 mM sulfur source, minimal medium, 0.5% glucose, 0.4 mM leucine", "experimental": "FIG. 21: Growth of E. coli on sulfonates. Strains TK080 (a; BW25113 ΔleuB) and TK082 (b; BW25113 ΔleuB ΔssuEADCB ΔtauD) were grown in MS minimal medium supplemented with 0.5% glucose, 0.4 mM L-leucine, 1 mM MgCl2 and 1 mM of a sulfur source. TK080 was able to use the majority of the tested sulfur sources with a similar efficiency as sulfate. […] Dots represent the average of three independent measurements with standard deviations shown as error bars.\nFor the experiments relating to the sulfonate based synthetic transport system, unless stated otherwise, growth experiments in selective medium were carried out in sulfur free MS minimal medium (4 mM citric acid, 1 mM MgCl2, 20 mM NH4Cl, 50 mM KH2PO4 and 1×NTA mix (10 μM nitrilotriacetic acid, 3 μM CaCl2, 3 μM FeCl3, 1 μM MnCl2, 0.3 μM ZnCl2, 0.3 μM H3B3, 0.3 μM CrC3, 0.3 μM COCl2, 0.3 μM CuCl2, 0.3 μM Ni2C, 0.3 μM Na2MoO4, 0.3 μM Na2SeO3)) supplemented with 0.5% glucose. MgSO4 (1 mM), MgCl2 (1 mM), L-leucine (0.4 mM), IPTG (0.5 mM), aTc (100 ng mL-1), nicotinic acid (various concentrations), 3-picolylamine (various concentrations) and sulfonates (various concentrations) as indicated in the text. […] Synthesis schemes for sulfobutanoyl-p-nitroanilide and other sulfonates are given below.\nThe sulfonate transporters SsuABC and TauABC transport a wide variety of sulfonate compounds (Eichhorn et al., 2000) and can thus be exploited for the present synthetic transport system. As such, the uptake and utilization of sulfobutanoyl-L-leucine was assessed. The leucine auxotrophic strain BW25113 ΔleuB was tested for growth in minimal medium supplemented with 0.5% glucose, 0.4 mM leucine, 0.4 mM isoleucine and 1 mM of a sulfur-containing compound as the sole sulfur source."}, "TK088[pSsuABC]": {"tested_on": "TK088[pSsuABC]", "assay": "Growth of histidine auxotrophic strain in liquid medium", "format": "cell-based, E. coli", "settings": "liquid MS minimal medium, 0.5 mM compound, pACT3 versus pPnGGT*", "experimental": "FIG. 22: Identification of GGT* activity and refactoring of the ssuABC operon. (a) Cell free extracts of strain TK018 synthesizing either EcGGT, EcGGT D433N, PnGGT or PnGGT D405N were incubated with 2 mM of the substrates γ-glutamyl-p-nitroanilide or sulfobutanoyl-p-nitroanilide (5), respectively. The release of 4-nitroaniline was quantified by measuring the absorption at 410 nm. (b) Plasmid map of the three-dimensional RBS-library for refactoring the ssuABC operon using 144 RBS variants per gene. RBS library sequences are underlined. Arrows point towards the final RBS sequences observed in plasmid pSsuABC. […] (e) Growth of strain TK088[pSsuABC]transformed with the empty vector pACT3 (black circles) or plasmid pPnGGT* (white circles) in liquid MS minimal medium supplemented with 0.5% glucose, 1 mM MgSO4, 0.4 mM L-leucine, 0.5 mM IPTG, 100 ng ml^−1 aTc and 0.5 mM sulfobutanoyl-L-histidine. Bars and dots from panels (a), (d) and (e) represent the average of three independent measurements with standard deviations shown as error bars. […]"}, "[1]": {"substrate": "CC(C)C[C@H](NC(=O)CCCS(=O)(=O)O)C(=O)O", "assay": "purified protein, by the assay type", "settings": "other: kinetic studies cited in Example 11, conditions not given"}},
  "data": [
    {"molecule": "NCc1cccnc1", "note": "[3-picolylamine]", "values": [
      {"measurement": "concentration necessary to complement the NAD+ auxotrophy compared to nicotinic acid", "setting": "TK090; MS minimal medium", "result": "500 to 1000", "unit": "fold"},
      {"measurement": "concentration needed to support growth as NAD+ source", "setting": "TK090; MS minimal medium", "result": "above 50 μM"},
      {"measurement": "growth with compound as sole source of NAD+", "setting": "TK090", "result": "no growth was observed"}
    ]},
    {"molecule": "O=C(CCCS(=O)(=O)[O-])NCc1cccnc1.[Na+]", "note": "[N-picolyl-sulfobutyramide, N-(3-Pyridinylmethyl)sulfobutyramide sodium salt]", "values": [
      {"measurement": "growth with compound as sole source of NAD+", "setting": "TK090", "result": "only observed when both the sulfonate transporter SsuABC and PnGGT* were synthesized simultaneously"}
    ]},
    {"molecule": "O=C(O)c1cccnc1", "note": "[nicotinic acid]", "values": [
      {"measurement": "concentration needed to support growth as NAD+ source", "setting": "TK090; MS minimal medium", "result": "sub-micromolar concentrations"}
    ]},
    {"molecule": "CCCCCS(=O)(=O)O", "note": "[pentanesulfonate, reference compound]", "values": [
      {"measurement": "effect of competitor on release of 4-nitroaniline from 0.5 mM sulfobutanoyl-p-nitroanilide", "setting": "TK082; TK082[pSsuABC, pPnGGT*]", "result": "sufficient to slow down the release of 4-nitroaniline"},
      {"measurement": "effect of competitor on release of AMC from 0.5 mM sulfobutanoyl-AMC", "setting": "TK082; TK082[pSsuABC, pPnGGT*]", "result": "sufficient to slow down the release of AMC in the presence of SsuABC"}
    ]},
    {"molecule": "Cc1cc(=O)oc2cc(NC(=O)CCCS(=O)(=O)O)ccc12", "note": "[sulfobutanoyl-AMC, N-(4-Methyl-2-oxo-2H-1-benzopyran-7-yl)sulfobutyramide]", "values": [
      {"measurement": "growth with compound as sole sulfur source", "setting": "BW25113 ΔleuB (TK080)", "result": "utilized with a lower efficiency"},
      {"measurement": "in vivo release of AMC from the compound", "setting": "TK082; 0.5 mM compound, different plasmid combinations", "result": "some release of the dye was detected in a strain expressing only PnGGT*"}
    ]},
    {"molecule": "O=C(CCCS(=O)(=O)O)N[C@@H](Cc1c[nH]cn1)C(=O)O", "note": "[sulfobutanoyl-L-histidine]", "values": [
      {"measurement": "growth with compound as sole sulfur source", "setting": "BW25113 ΔleuB (TK080)", "result": "comparable efficiencies"},
      {"measurement": "growth with compound as sole histidine source", "setting": "TK088[pSsuABC]", "result": "Entirely equivalent results"},
      {"measurement": "growth with compound as sole histidine source", "setting": "TK088[pSsuABC]; listed as sulfubutanoyl-L-histidine", "result": "grew significantly faster and to higher cell densities"}
    ]},
    {"molecule": "PnGGT ΔN24 D405N (Pseudomonas nitroreducens; D405N) (protein) MRGSHHHHHHGSACELTLDGGAVAAPDQYGAKVAAEILKKGGNAVDAAVATAFTLAVTYPEAGNIGGGGFMTLYVDGKPYFLDYREIAPKAATKTMYLNEKGEVIENLSLVGAKAAGVPGTVMGLWEAHQRFGKLKWSELLTPAIGYAQTGFKVADQQYQYRQDAIALFNGKTNFGDYFGTMKPGEVFKQPELAKTLERIADKGPDDFYKGETAKLLIAQMKQDGGLITSDDLVDYQAKWREPMRIDWQGNTLYTAPLPSSGGIALAQLIGIKEQRAADFKGVELNSAKYIHLLSEIEKRVFADRADYLGDPQFSKVPVAQLTDPKYIAKRAGEVNPDAISATEKVRPGLEPHQTTHFSIVDKDGNAVSNTYTLNWDFGSGVVVKGAGFLLNDEMDNFSSKPGVANAFGVVGSDANAIEPGKRMLSSMSPSIVTRDGHVSLVLGTPGGSRIFTSIFQVLNNVYDFHLPLEKAVAAQRVHHQLLPKDTIYYDAYAPLPGKVADELKAMGYTLEDQGWNMGDIQAIRVNGKALETASDPRGRGVGMVVKP", "values": [
      {"measurement": "Km", "setting": "[1]", "result": 734, "unit": "µM"}
    ]}
  ]
}
